The record followed here is ChEMBL document CHEMBL1201862, “PubChem BioAssay data set” (2004).

By EC50 is commonly meant the concentration giving half of the maximal effect. In general, AC50 refers to the concentration giving half of the maximal activity seen. In general, IC50 refers to the concentration that inhibits the measured activity by half.

The source made the active and inactive calls.

Experiment [1] concerns the target T1, Oxysterols receptor LXR-beta (Homo sapiens, UniProt P55055).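 Further: agonist activity at LXR measured by a cell-based luminescence readout across a dose range, run as a counterscreen for daf-12 agonists; HEK293 cells with Gal4-LXR fusion and GAL4-driven luciferase reporter; potency for activation of Gal4-LXR reporter so compounds are agonists.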
T1 sequence (P55055 whole entry): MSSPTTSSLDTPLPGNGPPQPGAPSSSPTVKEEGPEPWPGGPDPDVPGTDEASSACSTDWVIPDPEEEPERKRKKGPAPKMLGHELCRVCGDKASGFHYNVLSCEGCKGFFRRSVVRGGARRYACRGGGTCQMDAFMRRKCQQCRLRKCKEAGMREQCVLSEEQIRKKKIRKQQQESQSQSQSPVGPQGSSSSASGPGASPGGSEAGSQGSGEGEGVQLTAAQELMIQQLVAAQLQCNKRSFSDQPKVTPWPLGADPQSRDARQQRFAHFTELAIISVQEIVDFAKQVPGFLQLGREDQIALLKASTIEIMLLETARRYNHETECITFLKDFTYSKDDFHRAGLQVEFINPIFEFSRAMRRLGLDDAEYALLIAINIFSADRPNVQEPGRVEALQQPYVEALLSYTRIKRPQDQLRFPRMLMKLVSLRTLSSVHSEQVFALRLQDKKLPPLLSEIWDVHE
The class given is functional, cell-based.

A short description of experiment [2]: Luminescence Cell-Based Dose Confirmation HTS to Identify Activators of 5'UTR Stem-Loop Driven Alpha-Synuclein mRNA Translation in H4 Neuroglioblastoma Cells. [Related pubchem assays: 1829 (Project Summary), 1814 (Primary HTS)]. It counts as functional.
The test system of another experiment is HeLa. Put plainly: HeLa cell cytotoxicity, dose response, cytotoxicity control for MITF activator project, CellTiter-Glo luminescence, cherry-pick samples (AID 540259). The class given is functional, cell-based. The conditions noted are these: Homo sapiens.
In the next experiment the test system is H4. Kind of experiment: Luminescence Cell-Based Dose Response HTS to Identify Activators of 5'UTR Stem-Loop Driven Prion Protein mRNA Translation in H4 Neuroglioblastoma Cells. [Related pubchem assays: 1829 (Project Summary), 1814 (Primary HTS)]. The class given is functional. The conditions noted are these: Homo sapiens.
The nature of experiment [3]: Luminescence Cell-Based Dose Response HTS to Identify Activators of Luciferase Translation or Activity in H4 […] Cells. [Related pubchem assays: 1829 (Project Summary), 1814 (Primary HTS)]. The class given is functional.
For another experiment, the system named is Streptococcus. Kind of experiment: Group A Streptococcus viability loss, dose response, counter-screen for streptokinase expression inhibitor project, luminescence, BacTiterGlo (AID 1915).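 Further: potency for reduction of bacterial viability or growth.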 The class given is functional, organism-based. On the technique in general: Counterscreens check selectivity or assay interference.
For the next experiment, the target named is T2, Caspase-3 (Homo sapiens, UniProt P42574).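 Further: Dose-response selectivity test against caspase-3 for candidate inhibitors of sentrin-specific proteases (SENPs).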
T2 sequence (P42574 whole entry): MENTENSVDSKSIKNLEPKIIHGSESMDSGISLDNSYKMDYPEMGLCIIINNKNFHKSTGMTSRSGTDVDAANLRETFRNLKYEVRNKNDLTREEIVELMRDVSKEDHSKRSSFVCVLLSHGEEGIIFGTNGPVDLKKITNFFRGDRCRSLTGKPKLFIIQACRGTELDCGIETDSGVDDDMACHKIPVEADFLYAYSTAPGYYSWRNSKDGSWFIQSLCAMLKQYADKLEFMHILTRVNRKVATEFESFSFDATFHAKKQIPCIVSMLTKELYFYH
The class given is functional.

The target in experiment [4] is T3, Sentrin-specific protease 8 (Homo sapiens, UniProt Q96LD8).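 Further: luminescence read-out of SENP8 inhibition, dose-response confirmation following an ultra-high-throughput screen.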
T3 sequence (Q96LD8 whole entry): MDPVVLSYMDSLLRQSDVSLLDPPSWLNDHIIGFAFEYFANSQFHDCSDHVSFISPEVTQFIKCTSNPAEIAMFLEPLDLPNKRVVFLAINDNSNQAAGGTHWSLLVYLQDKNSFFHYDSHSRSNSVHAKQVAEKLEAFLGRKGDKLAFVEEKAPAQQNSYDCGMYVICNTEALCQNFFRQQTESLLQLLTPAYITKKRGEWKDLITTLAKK
It counts as functional.

Experiment [5] has as its target T4, Sentrin-specific protease 7 (Homo sapiens, UniProt Q9BQF6).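 Further: Luminescence-based dose-response confirmation of ultra-high-throughput screening hits, measuring inhibition of SENP7.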
T4 sequence (Q9BQF6 whole entry): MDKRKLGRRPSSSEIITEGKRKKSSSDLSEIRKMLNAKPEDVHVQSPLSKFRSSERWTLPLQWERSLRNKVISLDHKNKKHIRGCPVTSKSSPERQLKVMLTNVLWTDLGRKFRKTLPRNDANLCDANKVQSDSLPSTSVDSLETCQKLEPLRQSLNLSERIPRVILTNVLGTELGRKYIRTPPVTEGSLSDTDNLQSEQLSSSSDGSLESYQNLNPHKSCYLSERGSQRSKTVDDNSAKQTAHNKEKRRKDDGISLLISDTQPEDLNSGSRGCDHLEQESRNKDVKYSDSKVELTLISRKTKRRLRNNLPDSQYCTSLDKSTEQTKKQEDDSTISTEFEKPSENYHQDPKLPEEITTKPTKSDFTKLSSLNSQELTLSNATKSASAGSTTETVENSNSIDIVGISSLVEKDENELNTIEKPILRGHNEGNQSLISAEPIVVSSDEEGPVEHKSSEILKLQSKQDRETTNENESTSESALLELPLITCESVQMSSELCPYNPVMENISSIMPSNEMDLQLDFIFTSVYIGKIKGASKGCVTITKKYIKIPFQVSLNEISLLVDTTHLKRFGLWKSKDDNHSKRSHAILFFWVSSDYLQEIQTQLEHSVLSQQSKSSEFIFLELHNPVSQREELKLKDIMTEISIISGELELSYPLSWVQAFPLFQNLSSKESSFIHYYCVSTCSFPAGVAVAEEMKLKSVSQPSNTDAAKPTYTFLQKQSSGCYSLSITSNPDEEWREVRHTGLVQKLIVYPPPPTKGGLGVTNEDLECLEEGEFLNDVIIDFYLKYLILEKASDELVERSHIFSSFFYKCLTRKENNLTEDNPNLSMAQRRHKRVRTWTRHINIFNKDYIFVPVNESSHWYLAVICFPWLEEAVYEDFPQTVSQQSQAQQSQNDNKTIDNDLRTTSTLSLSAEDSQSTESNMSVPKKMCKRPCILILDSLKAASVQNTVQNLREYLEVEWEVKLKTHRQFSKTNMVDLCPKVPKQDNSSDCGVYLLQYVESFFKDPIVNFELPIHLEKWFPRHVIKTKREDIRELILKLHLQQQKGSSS
The class given is functional.

Experiment [6] has as its system Streptococcus sp. 'group A'. Put plainly: growth inhibition of control SK(-) GAS strain, dose response, counter-screen for streptokinase expression inhibitor project, luminescence, kanamycin, BacTiterGlo, confirmation (AID 1900). It counts as functional, organism-based.
Experiment [7] has as its target T5, Sentrin-specific protease 6 (Homo sapiens, UniProt Q9GZR1).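 Further: Luminescence-based dose-response confirmatory assay of SENP6 inhibition, following up an ultra-high-throughput screen.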
T5 sequence (Q9GZR1 whole entry): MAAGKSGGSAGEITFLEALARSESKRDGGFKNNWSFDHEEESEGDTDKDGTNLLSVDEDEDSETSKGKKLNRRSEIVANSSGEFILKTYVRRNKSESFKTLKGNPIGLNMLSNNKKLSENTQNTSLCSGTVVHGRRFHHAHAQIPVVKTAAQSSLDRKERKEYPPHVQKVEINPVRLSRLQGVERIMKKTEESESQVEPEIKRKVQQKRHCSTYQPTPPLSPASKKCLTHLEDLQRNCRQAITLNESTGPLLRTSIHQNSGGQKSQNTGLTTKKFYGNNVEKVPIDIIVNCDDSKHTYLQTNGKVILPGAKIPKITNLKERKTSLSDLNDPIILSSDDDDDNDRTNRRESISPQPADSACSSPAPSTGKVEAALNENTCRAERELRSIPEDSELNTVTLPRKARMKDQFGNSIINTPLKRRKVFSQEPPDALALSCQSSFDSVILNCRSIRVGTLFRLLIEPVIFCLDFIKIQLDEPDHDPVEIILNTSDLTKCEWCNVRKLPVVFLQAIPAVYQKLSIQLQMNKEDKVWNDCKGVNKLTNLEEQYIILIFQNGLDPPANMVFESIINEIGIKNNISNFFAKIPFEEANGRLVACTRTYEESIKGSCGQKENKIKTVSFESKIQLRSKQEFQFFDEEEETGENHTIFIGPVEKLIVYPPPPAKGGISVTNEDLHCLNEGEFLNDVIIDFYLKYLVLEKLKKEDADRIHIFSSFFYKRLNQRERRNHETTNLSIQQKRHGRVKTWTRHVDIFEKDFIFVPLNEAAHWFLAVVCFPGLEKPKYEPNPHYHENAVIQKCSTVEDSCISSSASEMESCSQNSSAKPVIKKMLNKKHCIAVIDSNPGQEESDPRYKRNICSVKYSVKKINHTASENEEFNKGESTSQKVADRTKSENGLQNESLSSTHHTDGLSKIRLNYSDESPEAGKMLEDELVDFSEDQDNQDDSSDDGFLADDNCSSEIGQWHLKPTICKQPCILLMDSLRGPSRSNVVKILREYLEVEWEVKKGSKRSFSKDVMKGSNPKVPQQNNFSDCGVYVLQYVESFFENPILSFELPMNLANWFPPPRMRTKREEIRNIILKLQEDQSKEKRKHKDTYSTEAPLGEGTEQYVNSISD
The class given is functional.

The next experiment has as its target T6, Streptokinase A (Streptococcus pyogenes serotype M1, UniProt P10520).
T6 sequence (P10520 whole entry): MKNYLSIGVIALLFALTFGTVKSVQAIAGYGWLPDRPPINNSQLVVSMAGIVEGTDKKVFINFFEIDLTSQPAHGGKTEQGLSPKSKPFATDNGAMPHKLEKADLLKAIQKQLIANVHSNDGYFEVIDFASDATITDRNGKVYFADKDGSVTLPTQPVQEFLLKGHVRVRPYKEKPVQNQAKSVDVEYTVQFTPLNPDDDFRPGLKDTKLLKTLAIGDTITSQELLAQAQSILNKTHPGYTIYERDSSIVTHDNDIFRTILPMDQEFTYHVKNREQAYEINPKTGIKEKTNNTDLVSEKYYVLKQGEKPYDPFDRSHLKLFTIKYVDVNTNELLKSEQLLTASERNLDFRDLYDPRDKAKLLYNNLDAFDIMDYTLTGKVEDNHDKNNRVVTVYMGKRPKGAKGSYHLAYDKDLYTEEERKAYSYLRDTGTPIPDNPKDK
Put plainly: S. pyogenes streptokinase expression inhibitors, potency, dose response, plasminogen activation absorbance, OD405 (AID 1914).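 Further: secreted streptokinase activity via plasminogen activation per viability signal from cell pellet.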 It counts as functional, Streptococcus pyogenes M1 GAS.

Experiment [8] relates to HEK293. Kind of experiment: HEK cell cytotoxicity by LDH release, dose response, cytotoxicity control for IDE activator project, fluorescence, HEK cells (AID 588440).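 Further: cytotoxicity by LDH release measuring loss of membrane integrity.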 The class given is functional, cell-based. The conditions noted are these: Homo sapiens. Background: Release of lactate dehydrogenase indicates damage to the cell membrane.
Experiment [9] has as its system HEK293. Kind of experiment: optical interference in Abeta FP readout, dose response, artefact control for IDE activator project, biochemical, fluorescence polarization (AID 588442). The conditions noted are these: Homo sapiens. It counts as functional, cell-based. For orientation: Polarisation of emitted light reports the rotation of a fluorescent probe.
For experiment [10], the target named is T7, Insulin-degrading enzyme (Homo sapiens, UniProt P14735).
T7 sequence (P14735 whole entry): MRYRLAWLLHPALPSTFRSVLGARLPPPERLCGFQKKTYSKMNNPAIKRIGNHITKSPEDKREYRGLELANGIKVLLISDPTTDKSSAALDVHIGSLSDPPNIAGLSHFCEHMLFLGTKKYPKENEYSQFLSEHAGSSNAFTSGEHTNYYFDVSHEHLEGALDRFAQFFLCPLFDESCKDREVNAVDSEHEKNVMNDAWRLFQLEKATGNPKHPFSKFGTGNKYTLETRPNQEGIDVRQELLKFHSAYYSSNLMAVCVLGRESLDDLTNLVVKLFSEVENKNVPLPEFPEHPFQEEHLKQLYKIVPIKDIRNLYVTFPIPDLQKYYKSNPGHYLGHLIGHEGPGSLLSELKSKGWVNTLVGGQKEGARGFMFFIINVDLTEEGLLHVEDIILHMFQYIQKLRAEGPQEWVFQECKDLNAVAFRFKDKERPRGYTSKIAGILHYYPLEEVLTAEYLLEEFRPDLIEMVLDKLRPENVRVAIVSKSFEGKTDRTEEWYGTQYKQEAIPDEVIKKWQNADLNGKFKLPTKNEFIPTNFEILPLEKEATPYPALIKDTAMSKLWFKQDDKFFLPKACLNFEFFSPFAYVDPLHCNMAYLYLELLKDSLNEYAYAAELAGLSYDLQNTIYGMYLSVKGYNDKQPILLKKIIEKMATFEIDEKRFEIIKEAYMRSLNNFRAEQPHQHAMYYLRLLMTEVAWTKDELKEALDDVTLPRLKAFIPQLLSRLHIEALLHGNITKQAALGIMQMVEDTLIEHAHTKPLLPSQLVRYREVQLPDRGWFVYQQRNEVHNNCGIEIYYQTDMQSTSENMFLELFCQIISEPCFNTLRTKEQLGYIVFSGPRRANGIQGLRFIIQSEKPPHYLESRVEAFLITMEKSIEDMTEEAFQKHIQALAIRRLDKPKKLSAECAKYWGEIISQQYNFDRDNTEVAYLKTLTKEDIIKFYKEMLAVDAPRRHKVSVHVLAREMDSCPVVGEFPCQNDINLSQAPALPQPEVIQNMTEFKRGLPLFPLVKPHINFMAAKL
Kind of experiment: activators of recombinant IDE enzyme, dose response, counter-screen for IDE activator project, biochemical, fluorescence polarization (AID 588681).

In experiment [11] the target is T7, Insulin-degrading enzyme. Kind of experiment: activators of endogenous IDE in HEK cells, dose response, cell-based, fluorescence polarization (AID 588439). It counts as functional.

`Cc1nn(C(=O)c2cccs2)c(N)c1-c1ccccc1`: the EC50 was > 67.5 µM (inactive) in experiment [1], 13.7 µM (active) in [2], > 120 µM (not active) with H4 and 19 µM (active) in experiment [3]. In addition, in the experiment on HeLa, the AC50 is 30.1 µM (active).
Consider `Cc1csc2nc(CSc3nc4ccccc4o3)c(Br)n12`, for which the results for the concentration giving a half-maximal response (EC50) (in the experiment on Streptococcus; in experiment [6]; at Streptokinase A) were > 150 µM (not active), 45.5 µM (active) and > 150 µM (not active), respectively. Besides, the IC50 is 49.4 µM (active) on Caspase-3, > 100 µM (inactive) in experiment [4], 16.2 µM (active) in experiment [5] and 12.5 µM (active) in experiment [7]. Besides, the concentration at half-maximal activity (AC50) in the experiment on HeLa was 42.3 µM (active).
In the case of `O=C(NCCSc1ccc(Br)cc1)c1ccc2[nH]cnc2c1`, the IC50 in the experiment on HEK293 [8] is > 89.3 µM (inactive). For the same molecule, the EC50 with HEK293 [9] was > 56 µM (inactive); on Insulin-degrading enzyme [10] it was > 54.7 µM (inactive); at Insulin-degrading enzyme [11], > 54.7 µM (inactive).
